Data from patent US20260207602A1, “EGFR INHIBITORS” (Blueprint Medicines Corporation, priority 2022, published 2026).

How the values were obtained:
EGFR L858R = target: T1, EGFR L858R (Homo sapiens, UniProt P00533, L858R); experiment: Biochemical EGFR inhibition assay (Caliper mobility shift), EGFR L858R; details: biochemical Caliper mobility shift assay, EGFR L858R enzyme; read-out: Enz EGFR L858R IC50
T1 construct: purchased SignalChem E10-122BG
Procedure, shortened: (§1)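 Recombinant mutant enzyme, 2.5 µM fluorescent peptide, ATP at 1.0 mM or Km, 1.0% DMSO, 25 °C. Stopped with EDTA once 10–20% of peptide was phosphorylated; apparent IC50 derived from electrophoretic product/substrate separation.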

EGFR (d746-750) = target: T2, EGFR (d746-750) (Homo sapiens, UniProt P00533, DEL746-750); experiment: Biochemical EGFR inhibition assay (Caliper mobility shift), EGFR (d746-750); details: biochemical Caliper mobility shift assay, EGFR Exon 19-del enzyme; read-out: Enz EGFR Exon 19-del IC50
T2 construct: purchased SignalChem E10-122JG
T2 sequence (P00533 with tags, fused parts or gaps DEL746-750 limits assumed): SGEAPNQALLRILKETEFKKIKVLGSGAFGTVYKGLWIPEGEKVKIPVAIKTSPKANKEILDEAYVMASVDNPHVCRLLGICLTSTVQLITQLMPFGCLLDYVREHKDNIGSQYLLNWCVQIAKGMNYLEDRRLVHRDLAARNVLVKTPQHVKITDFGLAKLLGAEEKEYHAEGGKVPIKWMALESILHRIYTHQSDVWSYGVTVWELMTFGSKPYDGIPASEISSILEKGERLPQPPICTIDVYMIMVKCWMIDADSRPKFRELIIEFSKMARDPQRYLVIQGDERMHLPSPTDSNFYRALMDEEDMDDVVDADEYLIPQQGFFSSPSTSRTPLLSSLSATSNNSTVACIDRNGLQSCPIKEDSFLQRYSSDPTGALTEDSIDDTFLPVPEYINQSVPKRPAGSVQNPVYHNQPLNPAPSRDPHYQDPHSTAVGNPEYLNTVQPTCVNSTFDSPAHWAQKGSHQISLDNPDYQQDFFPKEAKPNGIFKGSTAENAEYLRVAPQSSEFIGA
Procedure, shortened: as §1

[1] = target: intracellular phosphorylation of EGFR (Tyr1068) in PC-9 cells (Homo sapiens, UniProt P00533, DEL746-750); experiment: PC-9 pEGFR AlphaLISA assay; assay type: cell-based; details: 4 hours incubation, read-out: Phos EGFR PC9 IC50
Sequence of intracellular phosphorylation of EGFR (Tyr1068) in PC-9 cells (P00533 with tags, fused parts or gaps DEL746-750): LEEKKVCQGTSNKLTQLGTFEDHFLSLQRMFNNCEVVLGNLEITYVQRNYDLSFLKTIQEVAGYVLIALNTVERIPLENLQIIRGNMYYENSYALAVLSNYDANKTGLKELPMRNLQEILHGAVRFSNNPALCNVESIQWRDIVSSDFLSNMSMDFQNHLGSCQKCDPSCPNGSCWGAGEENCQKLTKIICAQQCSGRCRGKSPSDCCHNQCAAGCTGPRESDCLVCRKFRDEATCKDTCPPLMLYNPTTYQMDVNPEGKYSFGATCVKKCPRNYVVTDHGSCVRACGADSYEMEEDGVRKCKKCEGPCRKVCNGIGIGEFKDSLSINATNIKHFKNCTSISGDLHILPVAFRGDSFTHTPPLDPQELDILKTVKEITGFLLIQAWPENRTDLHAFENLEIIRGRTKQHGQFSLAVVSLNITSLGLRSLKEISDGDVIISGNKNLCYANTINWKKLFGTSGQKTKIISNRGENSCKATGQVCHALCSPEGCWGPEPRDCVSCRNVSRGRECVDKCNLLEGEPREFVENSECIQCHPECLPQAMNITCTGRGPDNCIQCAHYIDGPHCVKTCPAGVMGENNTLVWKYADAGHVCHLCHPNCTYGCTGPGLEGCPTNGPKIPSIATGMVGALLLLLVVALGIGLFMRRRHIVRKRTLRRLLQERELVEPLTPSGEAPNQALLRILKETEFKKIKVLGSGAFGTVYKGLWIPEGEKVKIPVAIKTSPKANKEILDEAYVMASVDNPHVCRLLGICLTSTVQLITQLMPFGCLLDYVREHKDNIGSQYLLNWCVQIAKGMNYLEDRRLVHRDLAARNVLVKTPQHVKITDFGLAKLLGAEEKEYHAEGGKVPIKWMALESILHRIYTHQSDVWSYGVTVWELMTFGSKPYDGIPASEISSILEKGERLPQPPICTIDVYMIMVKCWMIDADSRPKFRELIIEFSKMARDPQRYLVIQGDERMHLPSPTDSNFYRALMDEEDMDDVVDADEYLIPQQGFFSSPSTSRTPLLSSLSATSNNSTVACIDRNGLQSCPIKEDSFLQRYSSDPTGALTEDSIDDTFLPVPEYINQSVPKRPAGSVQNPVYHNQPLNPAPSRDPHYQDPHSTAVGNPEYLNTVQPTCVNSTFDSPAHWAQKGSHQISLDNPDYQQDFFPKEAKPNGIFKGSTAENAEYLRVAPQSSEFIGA
Procedure, shortened: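 PC-9 cells (EGFR del746-750) in phenol-free DMEM/10% FBS, adhered overnight, then exposed to 10-point 4-fold compound dilutions for 4 h at 37 °C. Lysates assayed for pEGFR Tyr1068 by AlphaLISA SureFire Ultra; IC50 from percent pEGFR inhibition vs log concentration.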

T1 sequence (P00533 25-1210 L858R): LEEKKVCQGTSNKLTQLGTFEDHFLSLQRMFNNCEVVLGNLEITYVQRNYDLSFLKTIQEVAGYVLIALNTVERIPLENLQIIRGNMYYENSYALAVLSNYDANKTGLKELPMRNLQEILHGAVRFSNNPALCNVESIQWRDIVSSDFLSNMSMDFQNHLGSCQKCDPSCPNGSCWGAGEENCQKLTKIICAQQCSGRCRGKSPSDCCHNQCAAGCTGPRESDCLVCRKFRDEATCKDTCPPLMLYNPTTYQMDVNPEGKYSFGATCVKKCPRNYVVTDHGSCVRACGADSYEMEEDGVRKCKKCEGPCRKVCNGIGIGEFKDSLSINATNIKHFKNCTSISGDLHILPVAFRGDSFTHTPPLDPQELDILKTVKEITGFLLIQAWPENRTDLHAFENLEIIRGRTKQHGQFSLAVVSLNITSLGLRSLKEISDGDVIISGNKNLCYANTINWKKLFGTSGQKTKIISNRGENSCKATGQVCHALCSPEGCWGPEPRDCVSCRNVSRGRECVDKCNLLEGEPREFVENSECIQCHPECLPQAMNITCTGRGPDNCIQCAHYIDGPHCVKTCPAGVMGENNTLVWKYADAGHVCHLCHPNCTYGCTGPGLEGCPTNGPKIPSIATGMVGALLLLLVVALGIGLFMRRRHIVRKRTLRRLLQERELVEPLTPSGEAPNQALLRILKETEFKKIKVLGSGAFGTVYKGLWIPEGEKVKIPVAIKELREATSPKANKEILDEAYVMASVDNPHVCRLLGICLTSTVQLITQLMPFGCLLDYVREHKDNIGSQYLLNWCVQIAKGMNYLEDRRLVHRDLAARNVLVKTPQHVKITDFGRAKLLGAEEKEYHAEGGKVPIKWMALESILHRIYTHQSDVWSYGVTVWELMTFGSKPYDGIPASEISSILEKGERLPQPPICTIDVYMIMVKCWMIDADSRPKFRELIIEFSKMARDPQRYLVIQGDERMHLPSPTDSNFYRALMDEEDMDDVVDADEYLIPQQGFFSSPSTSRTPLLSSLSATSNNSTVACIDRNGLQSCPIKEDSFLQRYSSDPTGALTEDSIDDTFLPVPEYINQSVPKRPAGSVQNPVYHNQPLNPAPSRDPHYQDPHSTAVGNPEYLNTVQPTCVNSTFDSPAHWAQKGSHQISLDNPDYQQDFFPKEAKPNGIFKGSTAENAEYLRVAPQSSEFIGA

| IC50 (EGFR L858R) [nM] | IC50 (EGFR (d746-750)) [nM] | IC50 [1] [nM] | Compound |
| --- | --- | --- | --- |
| ≤ 10 | ≤ 10 | ≤ 10 | Cn1cc(-c2cc(O[C@H]3CC[C@H]3O)c3c(Nc4ccc5ncsc5c4)ncnc3c2)cn1 [Example 185, (1R,2S)-2-((4-(benzo[d]thiazol-6-ylamino)-7-(1-methyl-1H-pyrazol-4-yl)quinazolin-5-yl)oxy)cyclobutan-1-ol] |
| ≤ 10 | ≤ 10 | ≤ 10 | Cn1cc(-c2cc(O[C@@H]3CC[C@H]3O)c3c(Nc4ccc5ncsc5c4)ncnc3c2)cn1 [Example 186, (1R,2R)-2-((4-(benzo[d]thiazol-6-ylamino)-7-(1-methyl-1H-pyrazol-4-yl)quinazolin-5-yl)oxy)cyclobutan-1-ol] |
| 10.1 to 50 | ≤ 10 | 10.1 to 50 | CN(C)C1(COc2cc(-c3cnn(C)c3)cc3ncnc(Nc4ccc5ncsc5c4)c23)COC1 [Example 187, N-(5-((3-(dimethylamino)oxetan-3-yl)methoxy)-7-(1-methyl-1H-pyrazol-4-yl)quinazolin-4-yl)benzo[d]thiazol-6-amine] |
| 10.1 to 50 | ≤ 10 | 10.1 to 50 | CN(C)CC1(COc2cc(-c3cnn(C)c3)cc3ncnc(Nc4ccc5ncsc5c4)c23)COC1 [Example 188, N-(5-((3-((dimethylamino)methyl)oxetan-3-yl)methoxy)-7-(1-methyl-1H-pyrazol-4-yl)quinazolin-4-yl)benzo[d]thiazol-6-amine] |
| 10.1 to 50 | ≤ 10 | 10.1 to 50 | CN1CCC(Oc2cc(-c3cnn(C(F)F)c3)cc3ncnc(Nc4ccc5ncsc5c4)c23)CC1 [Example 189, N-(7-(1-(difluoromethyl)-1H-pyrazol-4-yl)-5-((1-methylpiperidin-4-yl)oxy)quinazolin-4-yl)benzo[d]thiazol-6-amine] |
| ≤ 10 | ≤ 10 | ≤ 10 | CC(C)(O)Cn1cc(-c2cc(OC3CCOCC3)c3c(Nc4ccc5ncsc5c4)ncnc3c2)cn1 [Example 190, 1-(4-(4-(benzo[d]thiazol-6-ylamino)-5-((tetrahydro-2H-pyran-4-yl)oxy)quinazolin-7-yl)-1H-pyrazol-1-yl)-2-methylpropan-2-ol] |
| ≤ 10 | ≤ 10 | 10.1 to 50 | CC(C)n1cc(-c2cc(OC3CCOCC3)c3c(Nc4ccc5ncsc5c4)ncnc3c2)cn1 [Example 191, N-(7-(1-isopropyl-1H-pyrazol-4-yl)-5-((tetrahydro-2H-pyran-4-yl)oxy)quinazolin-4-yl)benzo[d]thiazol-6-amine] |
| ≤ 10 | ≤ 10 | 10.1 to 50 | COC[C@@H](C)Oc1cc(N2CCN3CCC[C@@H]3C2)cc2ncnc(Nc3ccc4ncsc4c3)c12 [Example 192, N-(7-((R)-hexahydropyrrolo[1,2-a]pyrazin-2(1H)-yl)-5-(((R)-1-methoxypropan-2-yl)oxy)quinazolin-4-yl)benzo[d]thiazol-6-amine] |
| ≤ 10 | ≤ 10 | ≤ 10 | C[C@@H]1CN(c2cc(O[C@H](C)C3COC3)c3c(Nc4ccc5ncsc5c4)ncnc3c2)C[C@H](C)O1 [Example 193, N-(7-((2S,6R)-2,6-dimethylmorpholino)-5-((R)-1-(oxetan-3-yl)ethoxy)quinazolin-4-yl)benzo[d]thiazol-6-amine] |
| ≤ 10 | ≤ 10 | ≤ 10 | CC(C)N1CCN(c2cc(OC3CCOCC3)c3c(Nc4ccc5ncsc5c4)ncnc3c2)C1=O [Example 194, 1-(4-(benzo[d]thiazol-6-ylamino)-5-((tetrahydro-2H-pyran-4-yl)oxy)quinazolin-7-yl)-3-isopropylimidazolidin-2-one] |
| ≤ 10 | ≤ 10 | 10.1 to 50 | COC[C@@H](C)Oc1cc(N2CCNCC2)cc2ncnc(Nc3ccc4ncsc4c3)c12 [Example 195, (R)-N-(5-((1-methoxypropan-2-yl)oxy)-7-(piperazin-1-yl)quinazolin-4-yl)benzo[d]thiazol-6-amine] |
| ≤ 10 | ≤ 10 | 10.1 to 50 | COC[C@@H](C)Oc1cc(N2CCN(CCO)CC2)cc2ncnc(Nc3ccc4ncsc4c3)c12 [Example 196, (R)-2-(4-(4-(benzo[d]thiazol-6-ylamino)-5-((1-methoxypropan-2-yl)oxy)quinazolin-7-yl)piperazin-1-yl)ethan-1-ol] |
| ≤ 10 | ≤ 10 | ≤ 10 | CO[C@H]1CCN(c2cc(O[C@H](C)C3COC3)c3c(Nc4ccc5ncsc5c4)ncnc3c2)C1 [Example 197, N-(7-((S)-3-methoxypyrrolidin-1-yl)-5-((R)-1-(oxetan-3-yl)ethoxy)quinazolin-4-yl)benzo[d]thiazol-6-amine] |
| ≤ 10 | ≤ 10 | ≤ 10 | CO[C@@H]1CCN(c2cc(O[C@H](C)C3COC3)c3c(Nc4ccc5ncsc5c4)ncnc3c2)C1 [Example 198, N-(7-((R)-3-methoxypyrrolidin-1-yl)-5-((R)-1-(oxetan-3-yl)ethoxy)quinazolin-4-yl)benzo[d]thiazol-6-amine] |
| ≤ 10 | ≤ 10 | 10.1 to 50 | c1nc(Nc2ccc3ncsc3c2)c2c(OC3CCOCC3)cc(N3CC4CC(C3)O4)cc2n1 [Example 199, N-(7-(6-oxa-3-azabicyclo[3.1.1]heptan-3-yl)-5-((tetrahydro-2H-pyran-4-yl)oxy)quinazolin-4-yl)benzo[d]thiazol-6-amine] |
| ≤ 10 | ≤ 10 | 10.1 to 50 | COCCN1CCN(c2cc(O[C@H](C)COC)c3c(Nc4ccc5ncsc5c4)ncnc3c2)CC1 [Example 201, (R)-N-(7-(4-(2-methoxyethyl)piperazin-1-yl)-5-((1-methoxypropan-2-yl)oxy)quinazolin-4-yl)benzo[d]thiazol-6-amine] |
| ≤ 10 | ≤ 10 | ≤ 10 | Cc1cn(-c2cc(O[C@H](C)C3COC3)c3c(Nc4ccc5ncsc5c4)ncnc3c2)c(=O)n1C [Example 202, (R)-1-(4-(benzo[d]thiazol-6-ylamino)-5-(1-(oxetan-3-yl)ethoxy)quinazolin-7-yl)-3,4-dimethyl-1,3-dihydro-2H-imidazol-2-one] |
| 10.1 to 50 | ≤ 10 | 10.1 to 50 | Cc1cn(-c2cc(OC(C)CN(C)C)c3c(Nc4ccc5ncsc5c4)ncnc3c2)c(=O)n1C (stereo not drawn) [Example 203, 1-(4-(benzo[d]thiazol-6-ylamino)-5-((1-(dimethylamino)propan-2-yl)oxy)quinazolin-7-yl)-3,4-dimethyl-1,3-dihydro-2H-imidazol-2-one] |
| ≤ 10 | ≤ 10 | ≤ 10 | C[C@@H](Oc1cc(N2CC3(COC3)C2)cc2ncnc(Nc3ccc4ncsc4c3)c12)C1COC1 [Example 204, (R)-N-(5-(1-(oxetan-3-yl)ethoxy)-7-(2-oxa-6-azaspiro[3.3]heptan-6-yl)quinazolin-4-yl)benzo[d]thiazol-6-amine] |
| ≤ 10 | ≤ 10 | 10.1 to 50 | CN1CCC(n2cc(-c3cc(F)c4c(Nc5ccc6ncsc6c5F)ncnc4c3)cn2)CC1 [Example 227, 7-fluoro-N-(5-fluoro-7-(1-(1-methylpiperidin-4-yl)-1H-pyrazol-4-yl)quinazolin-4-yl)benzo[d]thiazol-6-amine] |
| ≤ 10 | ≤ 10 | ≤ 10 | COc1cc2ncnc(Nc3ccc4ncsc4c3F)c2cc1-c1cnn(C2CCN(C)CC2)c1 [Example 240, 7-fluoro-N-(7-methoxy-6-(1-(1-methylpiperidin-4-yl)-1H-pyrazol-4-yl)quinazolin-4-yl)benzo[d]thiazol-6-amine] |
| ≤ 10 | ≤ 10 | 10.1 to 50 | COc1cc2ncnc(Nc3ccc4ncsc4c3)c2cc1-c1cnn(CC2CCN(C)CC2)c1 [Example 242, N-(7-methoxy-6-(1-((1-methylpiperidin-4-yl)methyl)-1H-pyrazol-4-yl)quinazolin-4-yl)benzo[d]thiazol-6-amine] |
| 10.1 to 50 | 10.1 to 50 | 10.1 to 50 | CN1CCC(Oc2cc(-c3ccc(S(C)(=O)=O)cc3)cc3ncnc(Nc4ccc5ncsc5c4)c23)CC1 [Example 243, N-(5-((1-methylpiperidin-4-yl)oxy)-7-(4-(methylsulfonyl)phenyl)quinazolin-4-yl)benzo[d]thiazol-6-amine] |
| ≤ 10 | ≤ 10 | 10.1 to 50 | COc1cn(C)nc1-c1cc(O[C@H]2CCCN(C)C2)c2c(Nc3ccc4ncsc4c3)ncnc2c1 [Example 245, (S)-N-(7-(4-methoxy-1-methyl-1H-pyrazol-3-yl)-5-((1-methylpiperidin-3-yl)oxy)quinazolin-4-yl)benzo[d]thiazol-6-amine] |
| ≤ 10 | ≤ 10 | 10.1 to 50 | COc1cn(C)nc1-c1cc(O[C@H]2CCCN(C)C2)c2c(Nc3ccc4ncsc4c3F)ncnc2c1 [Example 246, (S)-7-fluoro-N-(7-(4-methoxy-1-methyl-1H-pyrazol-3-yl)-5-((1-methylpiperidin-3-yl)oxy)quinazolin-4-yl)benzo[d]thiazol-6-amine] |
| ≤ 10 | ≤ 10 | 10.1 to 50 | CN1CCC[C@H](Oc2cc(-c3cn(C)nn3)cc3ncnc(Nc4ccc5ncsc5c4)c23)C1 [Example 247, (S)-N-(7-(1-methyl-1H-1,2,3-triazol-4-yl)-5-((1-methylpiperidin-3-yl)oxy)quinazolin-4-yl)benzo[d]thiazol-6-amine] |
